Measured values as given in US9549935B2, “Methods and compositions for treating migraines using noribogaine” (DemeRx, Inc., priority 2014, dated 2017).

Experiment: Plasma noribogaine glucuronide pharmacokinetics after single oral noribogaine doses in healthy volunteers
Type: in vivo, human
Details: for AUC0-216 of noribogaine glucuronide / AUC0-∞ of noribogaine glucuronide / Cmax of noribogaine glucuronide / Tmax of noribogaine glucuronide / t1/2 of noribogaine glucuronide: healthy volunteers, mean (SD), n = 6
Method: Blood was obtained for pharmacokinetic assessments pre-dose and then at 0.25, 0.5, 0.75, 1.0, 1.25, 1.5, 2, 2.5, 3, 3.5, 4, 4.5, 5, 5.5, 6, 7, 8, 10, 12, 14, 18, 24, 30, 36, 48, 60, 72, 96, 120, 168 and 216 hours post-dose. Samples were centrifuged and plasma stored at −70° C. until analyzed. Block 24 hour urine collections were obtained following study drug administration for the 30 and 60 mg cohorts. Aliquots were frozen at −20° C. until analyzed.
Plasma noribogaine glucuronide concentrations were determined in the 30 mg and 60 mg dose groups using a validated sensitive LCMSMS method. Sample preparation involved deproteinization of plasma samples with acetonitrile, drying the samples under a stream of nitrogen and reconstitution of sample with acetonitrile:B.P. water (5:95, v/v) containing 0.1% (v/v) formic acid. The compounds were separated by a 150×2.0 mm Luna 5 μm C18 column and detected with a triple-quadrupole API 4000 or 5000 mass spectrometer using electrospray ionization in positive mode and multiple reaction monitoring. Noribogaine-d4 was used as the internal standard. The precursor-product ion transition values for noribogaine glucuronide were m/z 472.8→297.3, and for the internal standard noribogaine-d4 m/z 301.1→122.2. Analyst® software was used for data acquisition and processing. The ratio of the peak area of noribogaine glucuronide to the internal standard noribogaine-d4 was used for calibration and measurement of the unknown concentration of noribogaine glucuronide. The LLOQ was 0.050 ng/ml noribogaine glucuronide. The calibration curve was between 0.050 and 6.400 ng/ml noribogaine glucuronide. Mobile phases was the same as method A. Binary flow: Initial concentration was 6% mobile phase B; hold at 6% mobile phase B for 0.5 minutes and linear rise to 90% mobile phase B over 2 minutes; hold at 90% mobile phase B for 1 minute and then drop back to 6% mobile phase B over 0.01 minute. Equilibrate system for 3.5 minutes. Total run time was 7 minutes. The within- and between-day assay precision was <11%, and the within- and between-day assay accuracy was <10%.
Noribogaine and noribogaine glucuronide concentrations above the limit of quantification were used to calculate pharmacokinetic parameters using model-independent methods. The maximum plasma concentration (Cmax) and time to maximum plasma concentration (Tmax) were the observed values. Plasma concentration data in the post-distribution phase of the plasma concentration-time plot were fitted using linear regression to the formula ln C=ln Co−t.Kel, where Co was the zero-time intercept of the extrapolated terminal phase and Kel was the terminal elimination rate constant. […] The area under the concentration-time curve (AUC) from time zero to the last determined concentration-time point (tf) in the post distribution phase was calculated using the trapezoidal rule. The area under the curve from the last concentration-time point in the post distribution phase (Ctf) to time infinity was calculated from AUCt-∞=Ctf/Kel. The concentration used for Ctf was the last determined value above the LLOQ at the time point. The total AUC0-∞ was obtained by adding AUCtf and AUCt-∞. Noribogaine apparent clearance (CL/F) was determined using the formula CL/F=Dose/AUC0-∞×1000, and apparent volume of distribution (Vd/F) was determined using the formula Vd/F=(CL/F)/Kel. Total urine noribogaine was the sum of both analytes.

[1] = 30 mg and 60 mg noribogaine dose groups, plasma
[2] = after single oral 30 mg noribogaine, plasma
[3] = after single oral 60 mg noribogaine, plasma

CC[C@H]1C[C@@H]2C[C@H]3c4[nH]c5ccc(OC6OC(C(=O)O)C(O)C(O)C6O)cc5c4CCN(C2)[C@@H]13 (some centres unmarked) [Noribogaine glucuronide, noribogaine glucuronide]
Mean half-life of plasma noribogaine glucuronide (30 mg and 60 mg noribogaine dose groups): 21 to 23 h
time by which noribogaine glucuronide was detected in all subjects [1]: ≤ 0.75 h
time of peak noribogaine glucuronide concentrations after noribogaine dosing [1]: 3 to 4 h
AUC0-216 of noribogaine glucuronide [2]: 25.7 (9.1) ng · hr/ml
AUC0-∞ of noribogaine glucuronide [2]: 25.8 (9.3) ng · hr/ml
Cmax of noribogaine glucuronide [2]: 1.8 (0.6) ng/ml
Tmax of noribogaine glucuronide [2]: 3.0 (0.6) hr
t1/2 of noribogaine glucuronide [2]: 20.6 (4.9) hr
AUC0-216 of noribogaine glucuronide [3]: 65.0 (21.5) ng · hr/ml
AUC0-∞ of noribogaine glucuronide [3]: 67.1 (21.9) ng · hr/ml
Cmax of noribogaine glucuronide [3]: 4.1 (1.2) ng/ml
Tmax of noribogaine glucuronide [3]: 3.8 (1.2) hr
t1/2 of noribogaine glucuronide [3]: 23.1 (3.0) hr
proportion of noribogaine glucuronide Cmax and AUC relative to noribogaine (both dose groups (30 mg and 60 mg)): 3-4%
